Values quoted from earlier work, collected in patent US20110008867A1, “COMPOSITIONS AND METHODS FOR THE PRODUCTION OF A COMPOUND” (GREENLIGHT BIOSCIENCES, priority 2008, published 2011).

Key:
E. coli = settings: in E. coli; concentration that inhibits cell growth
yeast = settings: in yeast; concentration that inhibits cell growth

SMILES	Inhibition Concentration (E. coli)	Inhibition Concentration (yeast) [%]
CCCCCCCCCCO [1-decanol]	0.000236% in E. Coli	–
CCO [Ethanol]	5%	15
CCCCCO [1-pentanol]	0.25% in E. Coli	–
CCCCO [1-butanol]	1.3% in E. coli	–
